Here are results for 31 compounds from PubChem BioAssay (NCI).

“And” between values parts separate entries of the source, which are not always exact repeats. Equal entries are not always repeated.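 Each compound was tested at five concentrations against cells in 96-well plates for 48 hours. At the GI50, growth is halved. TGI: total growth inhibition.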 Where a SMILES comes first, the peptide text is derived from it. [ ]: non-standard residue; d: D form. Phe(F5) = N[CH](Cc1c(F)c(F)c(F)c(F)c1F)C(=O)O

Holding throughout (experiment): NCI tumour cell line growth inhibition, 48 h
The subject of test [1] is MDA-N.
Test [2] deals with SNB-78 CNS.
For test [3], the system named is XF 498 CNS.
The test system of test [4] is KM20L2 colon.
In test [5] the test system is RXF-631 renal.
Test [6] has as its system LXFL 529 NSCLC.
The subject of test [7] is DMS 114 small cell lung.
In test [8] the test system is M19-MEL melanoma.
Test [9] concerns DLD-1 colon.
Test [10] deals with P388/ADR leukemia.
Test [11] concerns SN12K1 renal.
Test [12] concerns P388 leukemia.

Turning to `CC1Oc2cc3c(-c4c(O)cc(O)c5c(O)c6c(cc45)OC(C)C(C)C6=O)c(O)cc(O)c3c(O)c2C(=O)C1C` (stereo not drawn), the TGI in [1] is 1.58 µM.
`C=C(C)[C@@H]1CC=C(CO)CC1`: the TGI in test [2] was 988 µM; in test [3], 680 µM; in [4], 945 µM; in test [5] it was 1210 µM; in [1] it was above 10 µM; in test [6], 1320 µM. Further, the results for the TGI in test [7], in [8] and in test [9] were 709 µM, 793 µM and 922 µM, respectively.
Turning to `Nc1cc(=O)[nH]c(SC2=NC(N)CC(O)C2)n1` (stereo not drawn), the TGI in test [2], in test [3], in test [4], in [6], in test [7] and in test [8] was above 100 µM in each case. In [9], this compound registered a TGI above 100 µM.
In the case of `CCCC(O)[C@@H](O)c1ccc2c(c1O)C(=O)c1c(OC)cccc1C2=O` (stereo partly drawn), the TGI in [2] is 91.1 µM; in test [3], 36.3 µM; in test [4], above 100 µM; in [5], 75.4 µM; in test [7] it was 61.9 µM; in test [8], 61.5 µM. This compound displayed a TGI in test [9] above 100 µM.
For the compound `COC(=O)CCC(=O)N1Cc2cc(C)ccc2N(C(=O)CCC(=O)OC)Cc2cc(C)ccc21`, the TGI in [2], in [3], in test [8] and in [9] was above 100 µM each time.
As to `CC[C@](C)(O)C(=O)O[C@H]1C(=O)O[C@@H]2C[C@H]3C(C)=CC(=O)[C@@H](O)[C@]3(C)[C@H]3[C@@]4(O)OC[C@]32[C@@H]1[C@@H](C)[C@H]4O`, the GI50 in [2] was 0.0556 µM; in test [4], 0.267 µM and 0.136 µM; in test [7], below 0.0124 µM; in [8], 0.0233 µM. For the same compound, the TGI in test [2] was 0.289 µM and 0.28 µM; in [4] it was 4.77 µM and 16.9 µM; in test [10], 9.5 µM; in test [5], 2.77 µM; in test [1] it was 2.29 µM; in test [6] it was 0.0317 µM. Moreover, the TGI was below 0.0257 µM in test [7]; 0.0957 µM and 0.069 µM in [8]; 0.0598 µM in test [11]; 0.198 µM in [12].
As to `CC12CCC(=O)C=C1CCC1C2CCC2(C)C(C(=O)Cn3cnc4c(=S)nc[nH]c43)CCC12` (stereo not drawn), the TGI in [1] was above 100 µM.
As for `CCOP(=O)(OCC)C1CCCCOC1=O` (stereo not drawn), the TGI in test [2], in test [3], in test [4], in test [5], in [6] and in test [7] was above 100 µM throughout. The TGI in test [8] and in [9] was above 100 µM throughout.
Take `CC(=O)OC1c2ccccc2CC2(OC(C)=O)c3ccccc3C12` (stereo not drawn): the TGI in test [1] was above 100 µM.
Still for that read-out and setting: the result for `O=C(O)[C@@H]1C2CC([C@@H]1C(=O)O)[C@H](N1C(=O)CCC1=O)[C@@H]2Br` (stereo partly drawn) reads above 100 µM.
Consider `CCC[CH2][Sn]([CH2]CCC)([O]C(C)=O)[O]C(C)=O`, for which the GI50 in test [2] was 0.511 µM; in [3], 1.21 µM; in [4], 1.9 µM; in test [6], 0.241 µM; in test [9] it was 1.19 µM. Besides, the TGI in [2] was found to be 2.33 µM; in [3] it was 2.49 µM; in test [4] it was 3.81 µM; in test [6], 1.24 µM; in [8], 5.12 µM; in test [9], 2.58 µM.
Consider `C=C1C(=O)OC2CC3(C)C=CC(=O)C(=C)C3CC12` (stereo not drawn), for which the TGI in test [2] was 14 µM; in [3], 3.35 µM; in [4], 6.88 µM; in test [6], 1.93 µM; in test [7], 9.57 µM; in test [8], 3.51 µM. Also, the TGI in [9] is 1.51 µM.
As to `COc1ccccc1[N-]C(C1=C([O-])c2ccccc2C1=O)c1ccccc1.COc1ccccc1[N-]C(C1=C([O-])c2ccccc2C1=O)c1ccccc1.[Cu+2]` (stereo not drawn), the GI50 in test [2] is 8.19 µM; in test [4] it was 25.4 µM; in [5] it was 12.7 µM; in [6], 22.4 µM; in [7] it was 3.01 µM; in test [8], 41.7 µM. Besides, the GI50 in [9] is 3.7 µM. In addition, the TGI in test [2], in test [4], in test [5], in test [6], in test [7] and in [8] was above 100 µM in each case. In [9], the TGI was above 100 µM.
Turning to `O=C(NCCCCCCNC(=O)c1cccc2ccccc12)c1cccc2ccccc12`, the TGI in [2] is 48.9 µM; in test [3] it was 9.97 µM; in test [4], above 100 µM; in test [5], above 100 µM; in [6], above 100 µM; in test [7] it was above 100 µM. This compound had a TGI in [9] above 100 µM.
As to `O=C1c2ccccc2C(=O)N1CC1(C(=O)O)NCCS1(=O)=O` (stereo not drawn), the TGI in test [1] was above 100 µM.
Regarding `O=C(CC1Sc2ccccc2NC1=O)Nc1cc(Cl)ccc1Cl` (stereo not drawn), the TGI in test [2], in [4], in [5], in test [6], in test [7] and in [8] was above 100 µM each time. The TGI in test [9] was above 100 µM.
For `CC(=O)[O][Pb]([O]C(C)=O)([c]1ccccc1)[c]1ccccc1`, the GI50 in [2] is 1.45 µM; in test [4], 9.34 µM; in test [6], 5.57 µM; in test [7] it was 1.44 µM; in test [8], 2.77 µM; in test [9], 6.38 µM. In addition, the TGI in [2] was 7.63 µM; in [4], above 100 µM; in test [6] it was above 100 µM; in test [7] it was 4.16 µM; in [8], 9.89 µM; in test [9], above 100 µM.
Take `CN(C)c1ccc2c(NCCCCCCNc3ccnc4cc(N(C)C)ccc34)ccnc2c1`: the TGI is above 100 µM in test [2]; 11.9 µM in test [3]; above 100 µM in test [5]; 66.6 µM in test [7]; 95.3 µM in test [8]; above 100 µM in test [9].
For the compound `CC1=CC(=O)c2c(O)cccc2C1=O`, the TGI in [1] is 3.23 µM.
`COC(=O)C(CC(C)C)NC(=O)C(Cc1cnc[nH]1)NC(=O)CNC(=O)C(NC(=O)C(C)NC(=O)C(Cc1c[nH]c2ccccc12)NC(=O)C(CCC(=O)O)NC(=O)C(N)Cc1c(F)c(F)c(F)c(F)c1F)C(C)C` (stereo not drawn) (H-[Phe(F5)]EWAVGHL-OMe; configuration not given here): the TGI in test [2] is above 100 µM; in [3] it was above 100 µM; in test [4], above 100 µM; in test [1], above 12.5 µM; in [6], above 100 µM; in test [7] it was above 100 µM. The TGI in test [8] and in test [9] was above 100 µM each time.
With `O=C(O)CS(=O)(=O)C(c1ccccc1)c1ccccc1`, the TGI in test [1] was above 100 µM.
Turning to `C=C1C(=O)O[C@H]2C[C@@H](C)[C@@H]3CC(=O)OC[C@@]3(C)CC12` (stereo partly drawn), the TGI in test [4] is 52.2 µM; in [8], above 100 µM; in [9], 74.3 µM.
As to `CC(=O)/C(=C\c1ccco1)C(=O)Nc1ccccc1`, the TGI in test [2], in [3], in [6], in test [7], in test [8] and in test [9] was above 100 µM in each case.
In turn, `O=C(O)CSSCC(=O)O` had a TGI in test [1] above 100 µM.
For `COC12C=CC(CC1)c1c(O)ccc(O)c12` (stereo not drawn), the TGI is above 100 µM in test [2]; 44 µM in test [3]; above 100 µM in [4]; above 71.3 µM in test [6]; above 100 µM in [7]; above 55.4 µM in test [8]. This compound gave a TGI in [9] above 100 µM.
Compound `Nc1ncnc2c1ccn2C1OC2COP(=O)(O)OC2C1O` (stereo not drawn) yielded a TGI in [1] of 11.1 µM.
For `CC1CC2C(=O)NC(=O)C2c2[nH]c3ccccc3c21` (stereo not drawn), the TGI in test [2], in test [3], in test [6], in test [7], in [8] and in test [9] was above 100 µM each time.
In turn, `CC(C)(C(=O)NN)c1ccccc1` showed a TGI in test [1] above 100 µM.
As for `O=C1C/C(=C/c2ccc(/C=C3/CC(=O)N(c4cccc(Br)c4)C3=O)cc2)C(=O)N1c1cccc(Br)c1`, the TGI is above 100 µM in test [2]; above 79 µM in test [3]; above 100 µM in [4]; above 100 µM in [6]; above 100 µM in [7]; above 100 µM in [8]. In [9], this compound yielded a TGI above 100 µM.
Turning to `COC(=O)[C@@H]1CSC(=S)N1C(=O)C[C@H]1CC=CC[C@H]1CC(=O)Sc1ccccc1`, the TGI turned out to be 49.2 µM in test [2]; 34.5 µM in [3]; 39 µM in [4]; 30.5 µM in [6]; 47.1 µM in test [8]; 35.3 µM in test [9].
Take `O=C(CCn1[nH]c(=O)c(Cl)c(Cl)c1=O)NOCCCc1ccccc1`: the TGI in [2], in test [3], in [4], in [5], in test [6] and in test [8] was above 100 µM each time. The compound also gave a TGI in [9] above 100 µM.
